# According to publication PMC8391312 (Biomedicines, 2021):
# Tested on: Cav1.2/1.3 channels
# Format: cell-based, rat
compound,measurement,value
"[Cl][Cd][Cl] [Cd^2+, CdCl2]",block of current amplitude,98 ± 0.8%
